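In this assay, cells in 96-well plates receive the compound at five concentrations for 48 hours. Endpoints are linearly interpolated between the surrounding concentrations. GI50 = concentration required for 50% inhibition of growth. TGI denotes the concentration required for complete inhibition of growth.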
Assays:
Assay in all cases: growth of human tumour cells (NCI), 48 h
[1] = tested on: HL-60(TB) leukemia
[2] = tested on: ACHN renal
[3] = tested on: U251 CNS
[4] = tested on: OVCAR-8 ovarian
[5] = tested on: SN12C renal
[6] = tested on: SF-268 CNS
[7] = tested on: HS 578T breast
[8] = tested on: SK-MEL-28 melanoma
[9] = tested on: SF-539 CNS
[10] = tested on: NCI-H23 lung
[11] = tested on: SNB-19 CNS
[12] = tested on: CAKI-1 renal
[13] = tested on: OVCAR-5 ovarian
[14] = tested on: MALME-3M melanoma
[15] = tested on: NCI-H226 lung
[16] = tested on: IGROV1 ovarian
[17] = tested on: NCI-H460 lung
[18] = tested on: SW-620 colon
[19] = tested on: UO-31 renal
[20] = tested on: UACC-257 melanoma
[21] = tested on: DU-145 prostate
[22] = tested on: SR leukemia
[23] = tested on: HCC-2998 colon
[24] = tested on: A498 renal
[25] = tested on: OVCAR-3 ovarian
[26] = tested on: SF-295 CNS
[27] = tested on: HOP-92 NSCLC
[28] = tested on: KM12 colon
[29] = tested on: NCI-H522 lung
[30] = tested on: A549 NSCLC
[31] = tested on: K-562 leukemia
[32] = tested on: SK-MEL-2 melanoma
[33] = tested on: MCF7 breast
[34] = tested on: SNB-75 CNS
[35] = tested on: RPMI-8226 leukemia
[36] = tested on: EKVX NSCLC
[37] = tested on: SK-MEL-5 melanoma
[38] = tested on: 786-0 renal
[39] = tested on: NCI/ADR-RES ovarian
[40] = tested on: TK-10 renal
[41] = tested on: MDA-MB-435
[42] = tested on: PC-3 prostate
[43] = tested on: OVCAR-4 ovarian
[44] = tested on: HT29 colon
[45] = tested on: SK-OV-3 ovarian
[46] = tested on: UACC-62 melanoma
[47] = tested on: HCT-15 colon
[48] = tested on: CCRF-CEM leukemia
[49] = tested on: M14 melanoma
[50] = tested on: HOP-62 NSCLC
[51] = tested on: COLO 205 colon
[52] = tested on: MDA-MB-468 breast
[53] = tested on: MDA-MB-231 breast
[54] = tested on: T-47D breast
[55] = tested on: MOLT-4 leukemia
[56] = tested on: BT-549 breast
[57] = tested on: LOX IMVI melanoma
[58] = tested on: HCT-116 colon

`COC(=O)CCn1c(-c2ccc(-n3cc(-c4ccc(O[C@H]5O[C@@H]6OC7(C)CC[C@H]8[C@H](C)CC[C@@H]([C@H]5C)[C@@]68OO7)cc4)nn3)cc2)nc2ccccc21` showed a GI50 [1] of 98.4 nM, a TGI [1] of 572 nM and a GI50 [2] of 262 nM. The TGI [2] was 1360 nM, the GI50 [3] was 61 nM and the TGI [3] was > 9250 nM. For the same compound, the GI50 [4] was 128 nM, the TGI [4] was > 9250 nM and the GI50 [5] was 189 nM. The TGI [5] was > 9250 nM, the GI50 [6] was 242 nM and the TGI [6] was > 9250 nM. It also gave a GI50 [7] of 205 nM, a TGI [7] of 5570 nM and a GI50 [8] of 148 nM. The TGI [8] was > 9250 nM, the GI50 [9] was 197 nM and the TGI [9] was > 9250 nM. It also gave a GI50 [10] of 65.5 nM, a TGI [10] of 6490 nM and a GI50 [11] of 274 nM. The TGI [11] was > 9250 nM, the GI50 [12] was 333 nM and the TGI [12] was > 9250 nM. The GI50 [13] was 134 nM, the TGI [13] was > 9250 nM and the GI50 [14] was 175 nM. For the same compound, the TGI [14] was 5420 nM, the GI50 [15] was 163 nM and the TGI [15] was 2300 nM. The GI50 [16] was 257 nM, the TGI [16] was > 9250 nM and the GI50 [17] was 274 nM. The TGI [17] was > 9250 nM, the GI50 [18] was 43.8 nM and the TGI [18] was > 9250 nM. For the same compound, the GI50 [19] was 194 nM, the TGI [19] was 1050 nM and the GI50 [20] was 276 nM. The TGI [20] was > 9250 nM, the GI50 [21] was 485 nM and the TGI [21] was > 9250 nM. It also gave a GI50 [22] of 40.2 nM, a TGI [22] of 1140 nM and a GI50 [23] of 319 nM. For the same compound, the TGI [23] was > 9250 nM, the GI50 [24] was 5400 nM and the TGI [24] was > 9250 nM. For the same compound, the GI50 [25] was 100 nM, the TGI [25] was > 9250 nM and the GI50 [26] was 223 nM. For the same compound, the TGI [26] was > 9250 nM, the GI50 [27] was 128 nM and the TGI [27] was 765 nM. For the same compound, the GI50 [28] was 52.5 nM, the TGI [28] was > 9250 nM and the GI50 [29] was 97.6 nM. For the same compound, the TGI [29] was 1290 nM, the GI50 [30] was 277 nM and the TGI [30] was > 9250 nM. The GI50 [31] was 38.8 nM, the TGI [31] was > 9250 nM and the GI50 [32] was 238 nM. For the same compound, the TGI [32] was 812 nM, the GI50 [33] was 40.9 nM and the TGI [33] was > 9250 nM. For the same compound, the GI50 [34] was 257 nM, the TGI [34] was > 9250 nM and the GI50 [35] was 42.7 nM. The TGI [35] was 5120 nM, the GI50 [36] was 150 nM and the TGI [36] was > 9250 nM. For the same compound, the GI50 [37] was 216 nM, the TGI [37] was 1130 nM and the GI50 [38] was 330 nM. The TGI [38] was > 9250 nM, the GI50 [39] was 307 nM and the TGI [39] was > 9250 nM. For the same compound, the GI50 [40] was 386 nM, the TGI [40] was > 9250 nM and the GI50 [41] was 78 nM. The TGI [41] was > 9250 nM, the GI50 [42] was 40 nM and the TGI [42] was > 9250 nM. For the same compound, the GI50 [43] was 155 nM, the TGI [43] was > 9250 nM and the GI50 [44] was 75.3 nM. For the same compound, the TGI [44] was > 9250 nM, the GI50 [45] was 640 nM and the TGI [45] was > 9250 nM. The GI50 [46] was 135 nM, the TGI [46] was 1970 nM and the GI50 [47] was 37.6 nM. The TGI [47] was > 9250 nM, the GI50 [48] was 51.7 nM and the TGI [48] was > 9250 nM. The GI50 [49] was 360 nM, the TGI [49] was > 9250 nM and the GI50 [50] was 558 nM. For the same compound, the TGI [50] was > 9250 nM, the GI50 [51] was 68.5 nM and the TGI [51] was > 9250 nM. It also gave a GI50 [52] of 177 nM, a TGI [52] of 588 nM and a GI50 [53] of 208 nM. For the same compound, the TGI [53] was 2420 nM, the GI50 [54] was 37.4 nM and the TGI [54] was > 9250 nM. The GI50 [55] was 37.7 nM, the TGI [55] was 1620 nM and the GI50 [56] was 127 nM. It also gave a TGI [56] of 693 nM, a GI50 [57] of 37.1 nM and a TGI [57] of 158 nM. For the same compound, the GI50 [58] was 34.3 nM and the TGI [58] was > 9250 nM.

Reference: PubChem BioAssay (NCI)
